The record followed here is ChEMBL document CHEMBL3132814, “Synthesis and biological evaluation of tetrahydropyridinepyrazoles (PFPs) as inhibitors of STAT3 phosphorylation” (2014).

The structures appear in SMILES notation. The source made the active and inactive calls. The rule behind the calls is not given here.

In assay [1] the target is Signal transducer and activator of transcription 3 (Homo sapiens) (UniProt P40763). As to the kind of experiment: Inhibition of STAT3-DNA binding in human HepG2 cells at 10 uM after 6 hrs by ELISA based DNA binding assay. The assay is classed as cell-based. For orientation: In an ELISA, binding on a coated surface is turned into a signal by an enzyme label.
The test system of assay [2] is Hep 3B2. The experiment in a line: Antiproliferative activity against human Hep3B cells assessed as inhibition of cell proliferation at 10 to 100 uM by MTT dye uptake assay. The assay is classed as functional, cell-based. The settings on record: TDE = time-dependent effect. For orientation: Tetrazolium assays rely on reduction of a dye to a coloured formazan, in cell work by metabolically active cells.

Assay [3] has as its system PLC-PRF-5. The experiment in a line: Antiproliferative activity against human PLC/PRF/5 cells assessed as inhibition of cell proliferation at 10 to 100 uM by MTT dye uptake assay. The assay is classed as functional, cell-based. The settings on record: TDE = time-dependent effect.
The subject of assay [4] is Huh-7. As to the kind of experiment: Antiproliferative activity against human HuH7 cells assessed as inhibition of cell proliferation at 10 to 100 uM by MTT dye uptake assay. The assay is classed as functional, cell-based. The settings on record: TDE = time-dependent effect.
Assay [5] deals with HepG2. The experiment in a line: Antiproliferative activity against human HepG2 cells assessed as inhibition of cell proliferation at 10 to 100 uM by MTT dye uptake assay. The assay is classed as functional, cell-based. As to conditions: TDE = time-dependent effect.
Assay [6] has as its system Hep 3B2. The experiment in a line: Antiproliferative activity against human Hep3B cells assessed as inhibition of cell proliferation after 24 to 72 hrs by MTT dye uptake assay. The assay is classed as functional, cell-based.
Assay [7] relates to PLC-PRF-5. The experiment in a line: Antiproliferative activity against human PLC/PRF/5 cells assessed as inhibition of cell proliferation after 24 to 72 hrs by MTT dye uptake assay. The assay is classed as functional, cell-based.
In assay [8] the test system is Huh-7. As to the kind of experiment: Antiproliferative activity against human HuH7 cells assessed as inhibition of cell proliferation after 24 to 72 hrs by MTT dye uptake assay. The assay is classed as functional, cell-based.
Assay [9] concerns HepG2. As to the kind of experiment: Antiproliferative activity against human HepG2 cells assessed as inhibition of cell proliferation after 24 to 72 hrs by MTT dye uptake assay. The assay is classed as functional, cell-based.
The test system of assay [10] is HepG2. The experiment in a line: Antiproliferative activity against human HepG2 cells assessed as inhibition of cell proliferation at 100 uM after 2 hrs by MTT assay. The assay is classed as functional. As to conditions: for inhibition at 100 µM: HepG2, 2 h.
Another assay concerns MCF7. The experiment in a line: Antiproliferative activity against human MCF7 cells assessed as inhibition of cell proliferation at 100 uM after 2 hrs by MTT assay. The assay is classed as functional. The settings on record: MCF7, 2 h.
For assay [11], the system named is HCCLM3. As to the kind of experiment: Inhibition of human HCCLM3 cells migration at 10 uM for 6 hrs by wound-healing assay. The assay is classed as functional, cell-based.
Assay [12] deals with HCCLM3. As to the kind of experiment: Inhibition of human HCCLM3 cells migration at 10 uM for 6 hrs by matrigel invasion assay. The assay is classed as functional, cell-based.
In assay [13] the test system is HCCLM3. The experiment in a line: Inhibition of CXCL12-induced human HCCLM3 cells migration pretreated at 10 uM for 6 hrs by wound-healing assay. The assay is classed as functional, cell-based.
Assay [14] concerns HCCLM3. The experiment in a line: Inhibition of CXCL12-induced human HCCLM3 cells migration pretreated at 10 uM for 6 hrs by matrigel invasion assay. The assay is classed as functional, cell-based.
Another assay has as its system PC-3. The experiment in a line: Antiproliferative activity against human PC3 cells assessed as inhibition of cell proliferation at 10 to 100 uM after 24 to 72 hrs by MTT assay. The assay is classed as functional, cell-based.
For assay [15], the target named is Tyrosine-protein kinase JAK2 (Homo sapiens) (UniProt O60674). As to the kind of experiment: Inhibition of JAk2 activation in human HepG2 cells assessed as inhibition of phosphorylation at 10 uM by Western blot analysis. The assay is classed as cell-based. The settings on record: TDE = time-dependent effect. On the technique in general: In western blotting, separated proteins are transferred to a membrane and probed.

In assay [16] the target is Proto-oncogene tyrosine-protein kinase Src (Homo sapiens) (UniProt P12931). The experiment in a line: Inhibition of Src kinase activation in human HepG2 cells assessed as inhibition of phosphorylation at 10 uM by Western blot analysis. The settings on record: TDE = time-dependent effect. The assay is classed as cell-based.
Assay [17] deals with Signal transducer and activator of transcription 3 (Homo sapiens) (UniProt P40763). The experiment in a line: Inhibition of STAT3 activation in human HepG2 cells assessed as maximal inhibition of phosphorylation at tyrosine 705 at 10 uM at 4 to 6 hrs by Western blot analysis. The assay is classed as cell-based.
For assay [18] the target is unchanged. As to the kind of experiment: Inhibition of STAT3 activation in human HepG2 cells assessed as inhibition of phosphorylation at tyrosine 705 at 10 uM by Western blot analysis. The assay is classed as cell-based. The settings on record: TDE = time-dependent effect.
Assay [19] shares this target. The experiment in a line: Inhibition of STAT3-DNA binding in human HepG2 cells after 6 hrs by ELISA based DNA binding assay. The assay is classed as cell-based.

Chain of Signal transducer and activator of transcription 3 (Homo sapiens) (P40763 whole entry): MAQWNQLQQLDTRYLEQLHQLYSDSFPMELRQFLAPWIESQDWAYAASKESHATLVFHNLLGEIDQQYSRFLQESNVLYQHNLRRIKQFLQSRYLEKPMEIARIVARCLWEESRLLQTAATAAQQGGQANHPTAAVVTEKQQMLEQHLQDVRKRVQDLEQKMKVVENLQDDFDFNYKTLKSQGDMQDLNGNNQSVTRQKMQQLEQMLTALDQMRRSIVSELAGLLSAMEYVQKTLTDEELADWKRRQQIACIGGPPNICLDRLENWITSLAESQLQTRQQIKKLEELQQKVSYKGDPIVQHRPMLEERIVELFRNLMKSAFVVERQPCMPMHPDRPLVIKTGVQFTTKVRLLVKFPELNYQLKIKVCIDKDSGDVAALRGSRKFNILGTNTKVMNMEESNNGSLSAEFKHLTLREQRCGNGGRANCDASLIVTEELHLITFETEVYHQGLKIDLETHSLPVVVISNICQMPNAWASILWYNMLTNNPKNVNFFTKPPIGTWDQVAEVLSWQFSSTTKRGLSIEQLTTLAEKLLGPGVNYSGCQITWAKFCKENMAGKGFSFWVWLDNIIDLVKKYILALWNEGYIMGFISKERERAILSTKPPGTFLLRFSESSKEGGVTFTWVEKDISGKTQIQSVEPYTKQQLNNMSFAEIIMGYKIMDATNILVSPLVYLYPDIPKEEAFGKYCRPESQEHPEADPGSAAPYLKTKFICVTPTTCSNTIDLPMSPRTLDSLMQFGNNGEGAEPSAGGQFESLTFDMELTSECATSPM
Chain of Tyrosine-protein kinase JAK2 (Homo sapiens) (O60674 whole entry): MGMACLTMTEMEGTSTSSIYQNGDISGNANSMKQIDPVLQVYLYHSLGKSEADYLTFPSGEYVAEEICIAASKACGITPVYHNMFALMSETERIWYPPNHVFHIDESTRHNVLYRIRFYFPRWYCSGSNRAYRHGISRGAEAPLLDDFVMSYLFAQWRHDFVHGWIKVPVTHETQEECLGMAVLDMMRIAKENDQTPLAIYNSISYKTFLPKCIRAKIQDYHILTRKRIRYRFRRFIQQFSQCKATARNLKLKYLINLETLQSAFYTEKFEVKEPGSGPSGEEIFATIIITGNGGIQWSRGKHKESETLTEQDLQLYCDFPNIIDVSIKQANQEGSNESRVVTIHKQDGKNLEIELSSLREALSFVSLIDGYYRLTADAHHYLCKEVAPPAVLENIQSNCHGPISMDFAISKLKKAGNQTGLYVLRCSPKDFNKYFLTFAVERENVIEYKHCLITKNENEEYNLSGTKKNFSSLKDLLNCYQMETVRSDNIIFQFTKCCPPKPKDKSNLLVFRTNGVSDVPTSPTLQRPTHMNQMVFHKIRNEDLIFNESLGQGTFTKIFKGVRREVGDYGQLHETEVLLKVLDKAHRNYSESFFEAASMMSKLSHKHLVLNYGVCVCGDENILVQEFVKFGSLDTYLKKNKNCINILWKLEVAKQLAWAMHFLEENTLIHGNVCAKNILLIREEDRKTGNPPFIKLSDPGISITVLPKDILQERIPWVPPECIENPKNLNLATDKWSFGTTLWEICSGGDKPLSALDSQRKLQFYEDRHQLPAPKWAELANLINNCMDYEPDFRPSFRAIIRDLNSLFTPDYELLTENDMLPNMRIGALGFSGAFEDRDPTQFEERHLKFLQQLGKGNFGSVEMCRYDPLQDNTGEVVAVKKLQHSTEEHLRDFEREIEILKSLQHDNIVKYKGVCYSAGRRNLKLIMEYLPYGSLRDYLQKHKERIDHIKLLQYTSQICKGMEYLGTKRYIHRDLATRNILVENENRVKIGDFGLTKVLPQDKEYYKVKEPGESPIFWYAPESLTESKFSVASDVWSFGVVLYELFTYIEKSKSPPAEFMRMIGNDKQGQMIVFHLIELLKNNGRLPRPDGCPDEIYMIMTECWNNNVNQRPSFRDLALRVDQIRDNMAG
Chain of Proto-oncogene tyrosine-protein kinase Src (Homo sapiens) (P12931 2-536 limits assumed): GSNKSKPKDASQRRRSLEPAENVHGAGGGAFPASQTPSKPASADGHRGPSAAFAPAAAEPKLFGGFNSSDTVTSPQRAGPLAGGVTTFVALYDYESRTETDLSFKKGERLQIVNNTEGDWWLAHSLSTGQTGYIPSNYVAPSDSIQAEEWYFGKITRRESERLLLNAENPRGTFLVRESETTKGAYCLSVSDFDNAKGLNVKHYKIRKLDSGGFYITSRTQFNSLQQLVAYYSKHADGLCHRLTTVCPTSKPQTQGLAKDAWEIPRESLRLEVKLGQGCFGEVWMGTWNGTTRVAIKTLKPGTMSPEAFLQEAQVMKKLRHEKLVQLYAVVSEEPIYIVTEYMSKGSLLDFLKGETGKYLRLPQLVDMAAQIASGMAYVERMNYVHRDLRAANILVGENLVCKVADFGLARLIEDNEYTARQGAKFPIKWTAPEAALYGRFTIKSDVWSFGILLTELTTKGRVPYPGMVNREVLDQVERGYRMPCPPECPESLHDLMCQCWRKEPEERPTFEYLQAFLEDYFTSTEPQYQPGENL

A word on the inhibition: it is the share of the control response that was lost under treatment. With `C=CCN1Cc2c(nn(-c3ccc(Cl)cc3Cl)c2NC(=S)Nc2ccc(C(F)(F)F)cc2)C(F)(F)C1c1ccc(OC)cc1` (stereo not given), the inhibition entry in assay [1] was “Active”. The inhibition entry in the assay with Hep 3B2 [2] is “tde”; with PLC-PRF-5 [3] it was “tde”; in the assay on Huh-7 [4] it was “tde”; in the assay with HepG2 [5], “tde”; in the assay on Hep 3B2 [6], “Dose-dependent effect”; in the assay with PLC-PRF-5 [7] it was “Dose-dependent effect”. The inhibition entry in the assay on Huh-7 [8] and in the assay with HepG2 [9] was “Dose-dependent effect” in each case. Besides, the inhibition at 100 µM in the assay with HepG2 [10] came out at 85.1%; in the assay on MCF7, 84.1%.

As for `C=CCN1Cc2c(nn(-c3ccc(Cl)cc3Cl)c2NC(=O)Nc2ccccc2)C(F)(F)C1c1ccc(OC)cc1` (stereo not given), the inhibition result (with HCCLM3 [11]; in the assay with HCCLM3 [12]; in the assay on HCCLM3 [13]; with HCCLM3 [14]; in assay [17]) was “Active” in each case. Besides, the inhibition result in the assay on PC-3 was “inactive”. For the same molecule, the inhibition result was “tde” in assay [15]; “tde” in assay [16]; “tde” in [18]; “Dose-dependent effect” in [19]; “tde” in the assay on Hep 3B2 [2]; “tde” in the assay on PLC-PRF-5 [3]. The inhibition entry in the assay on Huh-7 [4] is “tde”; in the assay with HepG2 [5] it was “tde”; in the assay on Hep 3B2 [6], “Dose-dependent effect”; in the assay with PLC-PRF-5 [7], “Dose-dependent effect”; in the assay on Huh-7 [8], “Dose-dependent effect”; in the assay on HepG2 [9], “Dose-dependent effect”. For the same molecule, the inhibition at 100 µM turned out to be 80% in the assay with HepG2 [10] and 77.4% with MCF7.

Take `C=CCN1Cc2c(nn(-c3ccc(Cl)cc3Cl)c2NS(=O)(=O)c2ccccc2)C(F)(F)C1c1ccc(OC)cc1` (stereo not given): the inhibition result with HepG2 [10] was “inactive”. Besides, the inhibition at 100 µM with MCF7 worked out at 85.3%.

With `C=CCN1Cc2c(nn(-c3ccc(Cl)cc3Cl)c2NS(=O)(=O)c2ccc(F)cc2)C(F)(F)C1c1ccc(OC)cc1` (stereo not given), the inhibition result with HepG2 [10] is “inactive”. Also, the inhibition at 100 µM with MCF7 came to 78.8%.
